Our source for the inhibition values is patent US10787462B2, “Heterocyclic compound” (TAKEDA PHARMACEUTICAL COMPANY LIMITED, priority 2015, dated 2020).

What is called inhibition is the relative decrease from the control value, in per cent.

The target of this assay is T1, human RIPK1 (1-375) (Homo sapiens, UniProt Q13546).
T1 construct: human RIPK1 (1-375) gene; GST; made in house; host or cells: Sf-9 insect cells
T1 sequence (Q13546 1-375): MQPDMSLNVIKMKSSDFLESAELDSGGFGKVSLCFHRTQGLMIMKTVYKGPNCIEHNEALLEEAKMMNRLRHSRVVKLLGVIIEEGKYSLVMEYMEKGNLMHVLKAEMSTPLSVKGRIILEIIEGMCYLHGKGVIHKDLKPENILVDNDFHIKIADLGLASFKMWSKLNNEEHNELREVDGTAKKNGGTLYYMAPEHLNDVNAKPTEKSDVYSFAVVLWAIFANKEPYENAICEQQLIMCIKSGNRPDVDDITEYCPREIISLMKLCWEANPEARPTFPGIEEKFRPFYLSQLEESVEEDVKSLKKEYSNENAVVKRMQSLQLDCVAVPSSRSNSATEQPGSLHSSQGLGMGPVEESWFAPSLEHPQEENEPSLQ
As to the kind of experiment: Human RIPK1 enzyme inhibitory effect (ADP-Glo Kinase Assay). Format: biochemical. Particulars: read-out: human RIPK1 enzyme inhibitory effect at 10 μM (% inhibition), 10 μM test compound; well without enzyme = 100% inhibition. Here is the method:
Experimental Example 1: Human RIPK1 Enzyme Inhibitory Effect
Enzyme was prepared by transducing human RIPK1 (1-375) gene to Sf-9 insect cells, and purifying using GST affinity column, and enzyme activity evaluation was performed using the enzyme. The enzyme was used after preservation at −70° C. The RIPK1 enzyme inhibitory activity of the test compound was measured using ADP-Glo™ Kinase Assay (Promega) according the following experiment methods. The test compound diluted with assay buffer (25 mM HEPES (pH 7.5), 10 mM MgCl2, 0.01% Tween-20, 2 mM DTT) was added to 384 well plate by each 2 μL. Next, RIPK1 enzyme solution diluted with the assay buffer was added thereto by each 2 μL, and the mixture was incubated at room temperature for 20 min. After the incubation, 0.6 mM ATP solution was added thereto by each 2 μL to initiate an enzyme reaction. The mixture was incubated at room temperature for 120 min, and ADP-Glo solution prepared according to Promega protocol was added to the 384 well plate by each 3 μL, and the reaction was performed at room temperature for 40 min. Then, Kinase-Detection solution was added to the 384 well plate by each 6 μL, and the reaction was performed at room temperature for 40 min. After the reaction, the luminescence intensity was measured by plate reader Envision (PerkinElmer).
On the technique in general: In ADP-Glo the light output rises with the ADP produced.
In the case of `Cc1c2c(nn1Cc1cnccn1)C(=O)N([C@H]1COc3ccccc3N(C)C1=O)CC2` [Example 79, (3S)-5-methyl-3-(3-methyl-7-oxo-2-(pyrazin-2-ylmethyl)-2,4,5,7-tetrahydro-6H-pyrazolo[3,4-c]pyridin-6-yl)-2,3-dihydro-1,5-benzoxazepin-4(5H)-one], the inhibition at 10 µM amounted to 100%.

Consider `CN1C(=O)[C@@H](N2CCc3cn(Cc4ccccc4F)nc3C2=O)COc2ccc(Br)cc21` [Example 138, (3S)-7-bromo-3-(2-(2-fluorobenzyl)-7-oxo-2,4,5,7-tetrahydro-6H-pyrazolo[3,4-c]pyridin-6-yl)-5-methyl-2,3-dihydro-1,5-benzoxazepin-4(5H)-one], for which the inhibition at 10 µM was 101%.

On to `CN1C(=O)[C@@H](N2CCc3c(nn(Cc4ccccc4)c3Cl)C2=O)COc2cc(-c3cnn(C)c3)ccc21` [Example 107, (3S)-3-(2-benzyl-3-chloro-7-oxo-2,4,5,7-tetrahydro-6H-pyrazolo[3,4-c]pyridin-6-yl)-5-methyl-8-(1-methyl-1H-pyrazol-4-yl)-2,3-dihydro-1,5-benzoxazepin-4(5H)-one], for which the inhibition at 10 µM was determined as 100%.

In the case of `CN1C(=O)[C@@H](N2CCCn3nc(Cc4ccccc4)nc3C2=O)COc2ccccc21` [Example 2, (3S)-3-(2-benzyl-9-oxo-6,7-dihydro-5H-[1,2,4]triazolo[1,5-a][1,4]diazepin-8(9H)-yl)-5-methyl-2,3-dihydro-1,5-benzoxazepin-4(5H)-one], the inhibition at 10 µM is 91%.

With `CN1C(=O)[C@@H](N2CCc3c(nn(Cc4ccccc4)c3OC(F)F)C2=O)COc2cc(Br)ccc21` [Example 123, (3S)-3-(2-benzyl-3-(difluoromethoxy)-7-oxo-2,4,5,7-tetrahydro-6H-pyrazolo[3,4-c]pyridin-6-yl)-8-bromo-5-methyl-2,3-dihydro-1,5-benzoxazepin-4(5H)-one], the inhibition at 10 µM turned out to be 98%.

`CN1C(=O)[C@@H](N2CCc3cn(Cc4ccccc4)nc3C2=O)COc2ccc(C#N)cc21` [Example 14, (3S)-3-(2-benzyl-7-oxo-2,4,5,7-tetrahydro-6H-pyrazolo[3,4-c]pyridin-6-yl)-5-methyl-4-oxo-2,3,4,5-tetrahydro-1,5-benzoxazepine-7-carbonitrile]: the inhibition at 10 µM is 100%.

With `CN1C(=O)[C@@H](N2CCc3cn(Cc4ccccc4)nc3C2=O)COc2ccccc21` [Example 1, (3S)-3-(2-benzyl-7-oxo-2,4,5,7-tetrahydro-6H-pyrazolo[3,4-c]pyridin-6-yl)-5-methyl-2,3-dihydro-1,5-benzoxazepin-4(5H)-one], the inhibition at 10 µM is 100%.

On to `Cc1c2c(nn1Cc1ccccc1F)C(=O)N([C@H]1COc3cc(Br)ccc3N(C)C1=O)CC2` [Example 109, (3S)-8-bromo-3-(2-(2-fluorobenzyl)-3-methyl-7-oxo-2,4,5,7-tetrahydro-6H-pyrazolo[3,4-c]pyridin-6-yl)-5-methyl-2,3-dihydro-1,5-benzoxazepin-4(5H)-one], for which the inhibition at 10 µM was found to be 100%.

On to `CN1C(=O)[C@@H](N2CCc3cn(Cc4ccn(C)n4)nc3C2=O)COc2ccccc21` [Example 39, (3S)-5-methyl-3-(2-((1-methyl-1H-pyrazol-3-yl)methyl)-7-oxo-2,4,5,7-tetrahydro-6H-pyrazolo[3,4-c]pyridin-6-yl)-2-,3-dihydro-1,5-benzoxazepin-4(5H)-one], for which the inhibition at 10 µM was 92%.

On to `CN1C(=O)[C@@H](N2CCc3cn(Cc4ccoc4)nc3C2=O)COc2ccccc21` [Example 34, (3S)-3-(2-(3-furylmethyl)-7-oxo-2,4,5,7-tetrahydro-6H-pyrazolo[3,4-c]pyridin-6-yl)-5-methyl-2,3-dihydro-1,5-benzoxazepin-4(5H)-L-one], for which the inhibition at 10 µM is 99%.

Take `CN1C(=O)C(n2ccc3cn(Cc4ccccc4)nc3c2=O)CCc2ccccc21` (centres unmarked) [Example 6, 3-(2-benzyl-7-oxo-2,7-dihydro-6H-pyrazolo[3,4-c]pyridin-6-yl)-1-methyl-1,3,4,5-tetrahydro-2H-1-benzazepin-2-one]: the inhibition at 10 µM was 96%.
